# Measurements as given in patent publication US20100305113A1, “Substituted Imidazopyridazines as Lipid Kinase Inhibitors” (priority 2007, published 2010).
# Assays:
# Assay type in all cases: biochemical
# Settings in all cases: Enzymatic Data
# PI3K alfa = biological target: T1, PI3K alfa (Homo sapiens, UniProt P42336); test: PI3K alfa enzymatic assay (Kinase-Glo luminescence)
# T1 construct: p85(iSH2) fusion partner (same polypeptide; see partner chain) (N); 12x Gly linker (N); His tag (C); made in house; host or cells: baculovirus; Tn5 (Trichoplusia ni) or TiniPro insect cells
# Method: (§1) In a more preferred assay, the kinase reaction is performed in a final volume of 10 μL per well of a low volume non binding CORNING, 384 well black plate (Cat. No. #3676). The final concentrations of ATP and phosphatidyl inositol (PI) in the assay are 1 μM and 10 μg/mL respectively. The reaction is started by the addition of ATP.
# (§2) The components of the assay are added per well as follows:
# (§3) 50 nL test compounds in 90% DMSO per well, in columns 1-20, 8 concentrations (⅓ and 1/3.33 serial dilution step) in single. • Low control: 50 nL of 90% DMSO in half the wells of columns 23-24 (0.45% in final). • High control: 50 nL of reference compound (e.g. compound of Example 7 in WO 2006/122806, incorporated by reference herein that regard) in the other half of columns 23-24 (2.5 μM in final). • Standard: 50 nL of reference compound as just mentioned diluted as the test compounds in columns 21-22 • 20 mL ‘buffer’ are prepared per assay: • 200 μL of 1M TRIS HCl pH7.5 (10 mM in final) • 60 μL of 1M MgCl2 (3 mM in final) • 500 μL of 2M NaCl (50 mM in final) • 100 μL of 10% CHAPS (0.05% in final) • 200 μL of 100 mM DTT (1 mM in final) • 18.94 mL of nanopure water • 10 mL ‘PI’ are prepared per assay: • 200 μL of 1 mg/ml L-alpha-Phosphatidylinositol (Liver Bovine, Avanti Polar Lipids Cat. No. 840042C MW=909.12) prepared in 3% OctylGlucoside ([…]) • 9.8 mL of ‘buffer’ • 10 mL ‘ATP’ are prepared per assay: • 6.7 μL of 3 mM stock of ATP giving a final concentration of 1 μM per well • 10 mL of ‘buffer’ • 2.5 mL of each PI3K construct are prepared per assay in ‘PI’ with the following final concentration: • 10 nM PI3K alfa BV-1075 • 25 nM beta BV-949 • 10 nM delta BV-1060 • 150 nM gamma BV-950 • 5 μL of ‘PI/PI3K’ are added per well. • 5 μl ‘ATP’ are added per well to start the reaction. • The plates are then incubated at room temperature for 60 minutes (alfa, beta, delta) or 120 minutes (gamma). • The reaction is terminated by the addition of 10 μL Kinase-Glo (Promega Cat. No. #6714). • The assay plates are read after 10 minutes in Synergy 2 reader (BioTek, Vermont USA) with an integration time of 100 milliseconds and sensitivity set to 191. • Output: The High control is around 60′000 counts and the Low control is 30′000 or lower • This luminescence assay gives a useful Z′ ratio between 0.4 and 0.7 The Z′ value is a universal measurement of the robustness of an assay. A Z′ between 0.5 and 1.0 is considered an excellent assay.
# (§4) IC50 is determined by a four parameter curve fitting routine that comes aloneg with “excel fit”. A 4 Parameter logistic equation is used to calculate IC50 values (IDBS XLfit) of the percentage inhibition of each compound at 8 concentrations (usually 10, 3.0, 1.0, 0.3, 0.1, 0.030, 0.010 and 0.003 μM). Alternatively, IC50 values are calculated using idbsXLfit model 204, which is a 4 parameter logistic model.
# PI3K beta = biological target: T2, PI3K beta (Homo sapiens, UniProt P42338); test: PI3K beta enzymatic assay (Kinase-Glo luminescence)
# T2 construct: for the full-length p110-b subunit are generated and fused by overlapping PCR; p85(iSH2) fusion partner (same polypeptide; see partner chain) (N); Gly linker (N); His tag (C); made in house; host or cells: baculovirus; Tn5 (Trichoplusia ni) or TiniPro insect cells
# Method: as §1, §2, §3
# PI3Kβ BV-949 p85(iSH2)-Gly linker-p110b (Full-Length)-C-Term His Tag
# as §4
# PI3K delta = biological target: T3, PI3K delta (Homo sapiens, UniProt O00329); test: PI3K delta enzymatic assay (Kinase-Glo luminescence)
# T3 construct: for the full-length p110-d subunit are generated and fused by overlapping PCR; p85(iSH2) fusion partner (same polypeptide; see partner chain) (N); Gly linker (N); His tag (C); made in house; host or cells: baculovirus; Tn5 (Trichoplusia ni) or TiniPro insect cells
# Method: as §1, §2, §3
# PI3Kδ BV-1060 p85(iSH2)-Gly Linker-p110d (Full-Length)-C-term His Tact
# as §4
# PI3K gamma = biological target: T4, PI3K gamma (Homo sapiens, UniProt P48736); test: PI3K gamma enzymatic assay (Kinase-Glo luminescence)
# T4 construct: His tag (C); made in house; host or cells: construct from Roger Williams lab (MRC LMB); baculovirus (pVL1393); Tn5 (Trichoplusia ni) or TiniPro insect cells
# Method: as §1, §2, §3, §4
# T1 sequence (P42336 with tags, fused parts or gaps limits assumed): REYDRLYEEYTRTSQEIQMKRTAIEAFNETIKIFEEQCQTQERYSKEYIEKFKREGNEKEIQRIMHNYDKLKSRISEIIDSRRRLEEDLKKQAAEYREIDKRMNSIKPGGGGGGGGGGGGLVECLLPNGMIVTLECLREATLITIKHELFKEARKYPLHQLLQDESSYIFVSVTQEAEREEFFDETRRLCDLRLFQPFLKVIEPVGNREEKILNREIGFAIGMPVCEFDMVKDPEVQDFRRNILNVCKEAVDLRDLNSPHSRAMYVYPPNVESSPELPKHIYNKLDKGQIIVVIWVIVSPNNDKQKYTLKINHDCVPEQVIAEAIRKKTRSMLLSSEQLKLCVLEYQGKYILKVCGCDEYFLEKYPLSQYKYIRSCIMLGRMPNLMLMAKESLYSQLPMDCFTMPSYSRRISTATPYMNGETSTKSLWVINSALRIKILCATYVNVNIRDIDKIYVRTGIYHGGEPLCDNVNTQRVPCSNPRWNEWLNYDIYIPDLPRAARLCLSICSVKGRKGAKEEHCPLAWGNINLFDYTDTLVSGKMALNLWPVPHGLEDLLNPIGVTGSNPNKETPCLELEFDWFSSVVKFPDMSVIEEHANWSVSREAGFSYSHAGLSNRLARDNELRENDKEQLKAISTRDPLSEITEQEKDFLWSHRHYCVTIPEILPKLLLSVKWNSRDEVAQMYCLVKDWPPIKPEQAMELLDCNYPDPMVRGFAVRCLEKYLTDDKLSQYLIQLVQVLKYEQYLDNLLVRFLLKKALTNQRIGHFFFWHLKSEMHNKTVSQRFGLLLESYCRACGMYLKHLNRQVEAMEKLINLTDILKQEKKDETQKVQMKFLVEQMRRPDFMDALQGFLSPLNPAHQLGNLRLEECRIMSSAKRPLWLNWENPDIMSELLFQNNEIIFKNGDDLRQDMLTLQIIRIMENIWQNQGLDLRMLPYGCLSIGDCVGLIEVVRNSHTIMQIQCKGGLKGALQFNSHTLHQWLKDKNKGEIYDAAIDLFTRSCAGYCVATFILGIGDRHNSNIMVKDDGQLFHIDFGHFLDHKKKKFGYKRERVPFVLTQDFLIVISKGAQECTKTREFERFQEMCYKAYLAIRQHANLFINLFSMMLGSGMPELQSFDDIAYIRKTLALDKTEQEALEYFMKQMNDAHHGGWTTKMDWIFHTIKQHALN
# T4 sequence (P48736 144-1102 limits assumed): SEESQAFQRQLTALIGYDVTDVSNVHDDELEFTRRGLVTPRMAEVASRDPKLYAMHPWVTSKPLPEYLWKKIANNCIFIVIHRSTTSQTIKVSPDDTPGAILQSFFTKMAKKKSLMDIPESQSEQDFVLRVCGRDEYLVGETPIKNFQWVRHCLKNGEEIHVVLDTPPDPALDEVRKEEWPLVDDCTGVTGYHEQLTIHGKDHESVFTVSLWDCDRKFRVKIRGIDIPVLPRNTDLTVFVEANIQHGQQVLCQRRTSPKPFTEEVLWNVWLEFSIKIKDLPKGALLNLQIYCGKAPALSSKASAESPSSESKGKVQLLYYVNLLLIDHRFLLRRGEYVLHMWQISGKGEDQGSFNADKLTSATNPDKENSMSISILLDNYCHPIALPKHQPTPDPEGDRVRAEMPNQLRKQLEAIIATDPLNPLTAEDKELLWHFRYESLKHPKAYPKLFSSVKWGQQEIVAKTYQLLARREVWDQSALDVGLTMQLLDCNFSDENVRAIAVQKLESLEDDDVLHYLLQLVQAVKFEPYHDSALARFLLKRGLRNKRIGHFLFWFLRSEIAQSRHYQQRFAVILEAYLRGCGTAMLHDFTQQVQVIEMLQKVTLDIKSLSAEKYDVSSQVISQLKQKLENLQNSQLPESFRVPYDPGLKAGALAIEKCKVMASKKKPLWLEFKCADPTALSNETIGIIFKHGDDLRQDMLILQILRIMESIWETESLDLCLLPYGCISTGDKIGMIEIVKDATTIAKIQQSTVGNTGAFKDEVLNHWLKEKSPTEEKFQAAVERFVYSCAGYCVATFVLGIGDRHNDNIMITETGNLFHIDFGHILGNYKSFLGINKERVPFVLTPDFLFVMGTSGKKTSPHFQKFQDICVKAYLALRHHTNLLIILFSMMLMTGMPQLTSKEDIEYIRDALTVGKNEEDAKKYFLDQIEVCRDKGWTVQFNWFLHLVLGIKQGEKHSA
# T3 sequence (O00329 with tags, fused parts or gaps limits assumed): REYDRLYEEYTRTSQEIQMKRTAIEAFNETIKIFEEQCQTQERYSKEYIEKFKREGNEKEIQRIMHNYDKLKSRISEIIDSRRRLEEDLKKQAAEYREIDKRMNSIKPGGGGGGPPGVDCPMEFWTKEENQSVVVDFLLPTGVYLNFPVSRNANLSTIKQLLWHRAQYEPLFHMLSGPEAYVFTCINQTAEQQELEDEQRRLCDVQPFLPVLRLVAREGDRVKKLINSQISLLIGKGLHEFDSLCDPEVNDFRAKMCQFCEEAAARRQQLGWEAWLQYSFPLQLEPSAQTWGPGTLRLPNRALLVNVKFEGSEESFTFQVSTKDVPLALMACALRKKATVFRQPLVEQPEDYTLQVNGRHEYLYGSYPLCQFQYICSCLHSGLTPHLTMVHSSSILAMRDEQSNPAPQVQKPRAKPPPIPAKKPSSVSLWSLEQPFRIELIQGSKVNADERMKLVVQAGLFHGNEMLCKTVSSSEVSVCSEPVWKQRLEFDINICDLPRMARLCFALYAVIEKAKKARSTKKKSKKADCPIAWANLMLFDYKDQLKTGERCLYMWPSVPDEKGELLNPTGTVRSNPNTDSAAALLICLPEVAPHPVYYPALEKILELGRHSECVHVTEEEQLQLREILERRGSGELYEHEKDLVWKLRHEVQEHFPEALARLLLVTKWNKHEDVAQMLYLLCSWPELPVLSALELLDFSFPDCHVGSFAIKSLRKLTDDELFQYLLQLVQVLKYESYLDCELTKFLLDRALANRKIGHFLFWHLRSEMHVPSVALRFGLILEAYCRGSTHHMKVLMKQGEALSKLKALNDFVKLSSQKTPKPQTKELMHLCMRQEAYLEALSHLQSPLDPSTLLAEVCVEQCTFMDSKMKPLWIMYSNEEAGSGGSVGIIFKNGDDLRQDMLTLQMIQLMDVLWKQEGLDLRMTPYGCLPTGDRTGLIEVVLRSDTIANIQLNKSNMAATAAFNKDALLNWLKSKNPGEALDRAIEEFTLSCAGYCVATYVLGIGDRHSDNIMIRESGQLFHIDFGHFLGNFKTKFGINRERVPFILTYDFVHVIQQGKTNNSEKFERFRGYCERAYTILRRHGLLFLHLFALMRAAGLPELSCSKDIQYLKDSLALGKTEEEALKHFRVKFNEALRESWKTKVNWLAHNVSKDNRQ
# T2 sequence (P42338 with tags, fused parts or gaps limits assumed): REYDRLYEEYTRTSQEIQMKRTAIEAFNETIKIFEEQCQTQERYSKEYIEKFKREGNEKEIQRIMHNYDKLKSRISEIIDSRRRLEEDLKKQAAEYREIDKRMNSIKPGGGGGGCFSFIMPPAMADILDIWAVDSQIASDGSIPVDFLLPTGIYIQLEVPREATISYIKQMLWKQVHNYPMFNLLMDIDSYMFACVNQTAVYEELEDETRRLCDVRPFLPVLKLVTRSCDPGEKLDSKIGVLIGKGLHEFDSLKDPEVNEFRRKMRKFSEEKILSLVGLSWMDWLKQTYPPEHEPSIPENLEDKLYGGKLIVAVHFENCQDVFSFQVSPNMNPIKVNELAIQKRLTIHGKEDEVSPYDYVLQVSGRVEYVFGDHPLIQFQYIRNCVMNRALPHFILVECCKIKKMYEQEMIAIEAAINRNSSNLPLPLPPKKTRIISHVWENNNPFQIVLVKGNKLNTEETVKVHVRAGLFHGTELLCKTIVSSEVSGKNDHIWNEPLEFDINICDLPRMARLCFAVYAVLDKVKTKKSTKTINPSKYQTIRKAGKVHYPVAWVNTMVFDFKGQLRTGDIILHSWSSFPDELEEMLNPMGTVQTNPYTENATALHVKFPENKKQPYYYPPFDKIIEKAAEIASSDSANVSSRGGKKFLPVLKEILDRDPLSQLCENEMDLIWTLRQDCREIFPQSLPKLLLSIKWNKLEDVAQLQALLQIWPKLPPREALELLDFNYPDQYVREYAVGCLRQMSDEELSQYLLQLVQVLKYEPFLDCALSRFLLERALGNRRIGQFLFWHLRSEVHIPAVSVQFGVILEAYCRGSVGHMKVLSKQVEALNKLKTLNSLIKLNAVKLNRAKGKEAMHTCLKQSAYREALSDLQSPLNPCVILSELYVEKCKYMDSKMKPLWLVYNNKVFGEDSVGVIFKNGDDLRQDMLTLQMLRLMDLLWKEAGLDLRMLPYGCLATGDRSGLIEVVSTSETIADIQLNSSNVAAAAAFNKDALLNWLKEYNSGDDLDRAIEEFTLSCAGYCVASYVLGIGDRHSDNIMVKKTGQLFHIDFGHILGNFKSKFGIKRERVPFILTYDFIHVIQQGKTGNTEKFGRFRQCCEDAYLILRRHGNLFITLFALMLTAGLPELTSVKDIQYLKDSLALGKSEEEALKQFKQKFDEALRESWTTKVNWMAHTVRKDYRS
SMILES,IC50 (PI3K alfa),IC50 (PI3K beta),IC50 (PI3K delta),IC50 (PI3K gamma)
"COc1ccc(-c2ccc(-c3ccc4nc(C)c(-c5ccc(N6CCOCC6)nc5)n4n3)cc2)cc1 [Example 18, 6-(4′-Methoxy-biphenyl-4-yl)-2-methyl-3-(6-morpholin-4-yl-pyridin-3-yl)-imidazo[1,2-b]pyridazine]",> 25 µM,5.16 µM,> 25 µM,> 25 µM
"COCCOCCOCCOc1ccc(-c2ccc3nc(C)c(-c4ccc(S(C)(=O)=O)cc4)n3n2)cc1OC [Example 90, 3-(4-Methanesulfonyl-phenyl)-6-(3-methoxy-4-{2-[2-(2-methoxy-ethoxy)-ethoxy]-ethoxy}-phenyl)-2-methyl-imidazo[1,2-b]pyridazine]",2.36 µM,> 9.1 µM,1.74 µM,3.46 µM
"COc1ccc(-c2ccc3nc(C)c(-c4cnccn4)n3n2)cc1OC [Example 17, 6-(3,4-Dimethoxy-phenyl)-2-methyl-3-pyrazin-2-yl-imidazo[1,2-b]pyridazine]",0.181 µM,4.48 µM,2.02 µM,0.797 µM
COc1cc(-c2ccc3nc(C)c(-c4cnc(N)c(C(F)(F)F)c4)n3n2)ccc1OCCCNC(=O)OC(C)C [Example 80],0.175 µM,> 9.1 µM,2.7 µM,1.93 µM
"COc1cc(-c2ccc3nc(C)c(-c4ccc(S(C)(=O)=O)cc4)n3n2)ccc1OC1CCNCC1 [Example 101, 3-(4-Methanesulfonyl-phenyl)-6-[3-methoxy-4-(piperidin-4-yloxy)-phenyl]-2-methyl-imidazo[1,2-b]pyridazine]",1.04 µM,> 9.1 µM,1.18 µM,> 9.1 µM
"COc1ccc(-c2ccc3nc(C)c(-c4ccnc(NCC5CC5)n4)n3n2)cc1OC [Example 87, Cyclopropylmethyl-{4-[6-(3,4-dimethoxy-phenyl)-2-methyl-imidazo[1,2-b]pyridazin-3-yl]-pyrimidin-2-yl}-amine]",0.296 µM,> 9.1 µM,0.357 µM,0.098 µM
"COc1cc(-c2ccc3nc(C)c(-c4cnc(N)c(C(F)(F)F)c4)n3n2)ccc1OC1CCN(C(=O)OC(C)(C)C)CC1 [Example 92, 4-{4-[3-(6-Amino-5-trifluoromethyl-pyridin-3-yl)-2-methyl-imidazo[1,2-b]pyridazin-6-yl]-2-methoxy-phenoxy}-piperidine-1-carboxylic acid tert-butyl ester]",1.78 µM,> 9.1 µM,> 9.1 µM,> 9.1 µM
"Cc1nc2ccc(-c3ccc(OCC4(NC(=O)OCc5ccccc5)COC4)cc3)nn2c1-c1cnc(N)c(C(F)(F)F)c1 [Example 112, (3-{4-[3-(6-Amino-5-trifluoromethyl-pyridin-3-yl)-2-methyl-imidazo[1,2-b]pyridazin-6-yl]-phenoxymethyl}-oxetan-3-yl)-carbamic acid benzyl ester]",0.821 µM,> 9.1 µM,1.82 µM,> 9.1 µM
"Cc1nc2ccc(-c3ccc4c(c3)OCO4)nn2c1-c1cnc2[nH]ccc2c1 [Example 109, 6-Benzo[1,3]dioxol-5-yl-2-methyl-3-(1H-pyrrolo[2,3-b]pyridin-5-yl)-imidazo[1,2-b]pyridazine]",5.91 µM,> 9.1 µM,3.94 µM,> 9.1 µM
"Cc1nc2ccc(-c3ccc(S(C)(=O)=O)cc3)nn2c1-c1cncc(C#N)c1 [Example 19, 5-[6-(4-Methanesulfonyl-phenyl)-2-methyl-imidazo[1,2-b]pyridazin-3-yl]-nicotinonitrile]",1.29 µM,12.3 µM,5.5 µM,5.18 µM

# Stronger by IC50 (PI3K alfa), values ahead:
IC50 (PI3K alfa),IC50 (PI3K beta),IC50 (PI3K delta),IC50 (PI3K gamma),SMILES
0.058 µM,4.16 µM,> 25 µM,> 25 µM,"CCOc1ccc(-c2ccc3nc(C)c(-c4ccc(-c5ccc(C#N)nc5)nc4)n3n2)cc1OC [Example 13, 5-[6-(4-Ethoxy-3-methoxy-phenyl)-2-methyl-imidazo[1,2-b]pyridazin-3-yl]-[2,3]bipyridinyl-6′-carbonitrile]"
0.031 µM,4.86 µM,0.424 µM,0.805 µM,"COc1cc(-c2ccc3nc(C)c(-c4cnc(N)c(C(F)(F)F)c4)n3n2)ccc1OCCCN1CCNC1=O [Example 96, 1-(3-{4-[3-(6-Amino-5-trifluoromethyl-pyridin-3-yl)-2-methyl-imidazo[1,2-b]pyridazin-6-yl]-2-methoxy-phenoxy}-propyl)-imidazolidin-2-one]"
0.031 µM,2.08 µM,0.255 µM,0.477 µM,"COc1cc(-c2ccc3nc(C)c(-c4cnc(N)c(C(F)(F)F)c4)n3n2)ccc1OCCN1CCNC1=O [Example 104, 1-(2-{4-[3-(6-Amino-5-trifluoromethyl-pyridin-3-yl)-2-methyl-imidazo[1,2-b]pyridazin-6-yl]-2-methoxy-phenoxy}-ethyl)-imidazolidin-2-one]"
0.028 µM,> 9.1 µM,1.66 µM,2.52 µM,COc1cc(-c2ccc3nc(C)c(-c4cnc(N)c(C(F)(F)F)c4)n3n2)ccc1OCCNC(=O)Nc1cccnc1 [Example 51]
0.042 µM,1.17 µM,0.456 µM,0.303 µM,"COc1ccc(-c2ccc3nc(C)c(-c4ccc(O)nc4)n3n2)cc1OC [Example 8, 5-[6-(3,4-dimethoxy-phenyl)-2-methyl-imidazo[1,2-b]pyridazin-3-yl]-pyridin-2-ol]"
0.138 µM,5.15 µM,2.05 µM,0.688 µM,"CCOc1ccc(-c2ccc3nc(C)c(-c4ccc(N5CCOCC5)nc4)n3n2)cc1OC [Example 14, 6-(4-Ethoxy-3-methoxy-phenyl)-2-methyl-3-(6-morpholin-4-yl-pyridin-3-yl)-imidazo[1,2-b]pyridazine]"
0.0059 µM,0.15 µM,0.069 µM,0.157 µM,"COc1ccc(-c2ccc3nc(C)c(-c4cnc(N)c(C(F)(F)F)c4)n3n2)cc1OC [Example 15, 5-[6-(3,4-Dimethoxy-phenyl)-2-methyl-imidazo[1,2-b]pyridazin-3-yl]-3-trifluoromethyl-pyridin-2-ylamine]"
0.096 µM,0.976 µM,0.694 µM,0.419 µM,COc1ccc(-c2ccc3nc(C)c(-c4ccc(N)nc4)n3n2)cc1OC [Example 7]
0.049 µM,8.73 µM,0.435 µM,1.52 µM,"Cc1nc2ccc(-c3ccc(OCC4(NC(=O)C(C)C)COC4)cc3)nn2c1-c1cnc(N)c(C(F)(F)F)c1 [Example 114, N-(3-{4-[3-(6-Amino-5-trifluoromethyl-pyridin-3-yl)-2-methyl-innidazo[1,2-b]pyridazin-6-yl]-phenoxymethyl}-oxetan-3-yl)-isobutyramide]"
